{"source": "paper PMC10303384", "about": "“The Effect of Terbinafine and Its Ionic Salts on Certain Fungal Plant Pathogens” (Molecules, 2023)", "key": {"[1]": {"tested_on": "Pyricularia oryzae (P. oryzae)", "experiment": "microbe, parasite or virus in culture", "format": "cell-based"}, "[2]": {"tested_on": "Pythium aphanidermatum (P. aphanidermatum)", "experiment": "In vitro fungicidal activity, mycelial (hyphae) growth inhibition on PDA", "format": "cell-based", "settings": "mean ± SD of three replicates"}, "Valsa malicola (V. mali)": {"tested_on": "Valsa malicola (V. mali)", "experiment": "In vitro fungicidal activity, mycelial (hyphae) growth inhibition on PDA", "format": "cell-based"}, "[3]": {"tested_on": "Fusarium graminearum (F. graminearum)", "experiment": "microbe, parasite or virus in culture", "format": "cell-based"}, "[4]": {"experiment": "Solubility classification in representative solvents (Vogel protocol)", "format": "physicochemical", "settings": "25 °C, test amount 0.1 g", "procedure": "This investigation details how to determine the solubility of terbinafine and its salts, guided by the experimental protocol in Vogel’s Textbook of Practical Organic Chemistry. Based on the Snyder polarity index values of the representative solvents, each solvent was tested for its ability to dissolve the target analytes. The solubility data was classified into three categories based on the observed extent of dissolution. […] The experimental procedures were performed at 25 °C and under ambient pressure."}, "[5]": {"experiment": "Surface tension of saturated aqueous solutions, Du Noüy ring method", "settings": "25 °C", "experimental": "This method involved adjusting the stage positioning of the solvent container such that a platinum ring could be immersed below the liquid interface or pulled through the meniscus. […] The maximum force was recorded as the surface tension of the solvent. To ensure accuracy, the platinum ring was thoroughly cleaned between each measurement through rinsing with double-distilled water and wiping it dry. The surface tension determination was performed in quadruplicate."}, "[6]": {"tested_on": "Botrytis cinerea (B. cinerea)", "experiment": "In vitro fungicidal activity, mycelial (hyphae) growth inhibition on PDA", "format": "cell-based"}, "[7]": {"tested_on": "Alternaria solani (A. solani)", "experiment": "In vitro fungicidal activity, mycelial (hyphae) growth inhibition on PDA", "format": "cell-based"}, "[8]": {"tested_on": "B. cinerea on cherry tomatoes", "experiment": "In vivo antifungal bioassay on cherry tomatoes", "design": "species or system Botrytis cinerea", "settings": "20 mg/L"}, "[9]": {"experiment": "Critical micelle concentration by electrical conductivity", "settings": "25 °C", "experimental": "The critical micelle concentrations (CMCs) of the TISs were measured using electrical conductivity at 25 °C, as shown in Figure S16.\nThe critical micelle concentrations (CMCs) of all the TISs were determined using an electrical conductivity meter (Leica Desktop Conductivity Meter DDSJ-308F, Shanghai Oustor Industrial Co., Ltd. Shanghai, China)."}, "[10]": {"tested_on": "Rhizoctonia solani (R. solani)", "experiment": "microbe, parasite or virus in culture", "format": "cell-based"}, "[11]": {"tested_on": "Phomopsis capsici (P. capsica)", "experiment": "In vitro fungicidal activity, mycelial (hyphae) growth inhibition on PDA", "format": "cell-based", "settings": "mean ± SD of three replicates"}, "[12]": {"experiment": "Solubility of saturated solutions by HPLC at 25 °C", "format": "physicochemical", "source_text": "The filtrate was then passed through a 0.22 μm nylon membrane filter and subjected to HPLC analysis. Based on Wang’s report about the chromatographic parameters, modifications to the mobile phase ratio were made. The replicability of the results was ensured by performing each measurement in triplicate."}, "[13]": {"settings": "50 mg/L, mean ± SD of three replicates"}}}
{"smiles": "CN(C/C=C/C#CC(C)(C)C)Cc1cccc2ccccc12.O=C(O)c1ccco1", "note": "[TIS 5, (E)-N,6,6-trimethyl-N-(naphthalen-1-ylmethyl)hept-2-en-4-yn-1-aminium furan-2-carboxylate]", "values": [{"measurement": "Inhibition Rate at 50 mg/L (%) P. o", "setting": "[1]; [13]", "value": "96.68 ± 0.42", "unit": "%"}, {"measurement": "EC50 (mg/L)", "setting": "[1]; P. oryzae", "value": 0.49, "unit": "mg/L"}, {"measurement": "EC50", "setting": "[1]; P. oryzae, read-out: EC50", "value": 1220, "unit": "nM"}, {"measurement": "Inhibition Rate at 50 mg/L (%) P. a", "setting": "[2]", "value": "71.96 ± 2.68", "unit": "%"}, {"measurement": "Inhibition Rate at 50 mg/L (%) V. m", "setting": "Valsa malicola (V. mali); [13]", "value": "100 ± 0", "unit": "%"}, {"measurement": "EC50 (mg/L)", "setting": "Valsa malicola (V. mali); V. mali", "value": 1.49, "unit": "mg/L"}, {"measurement": "improvement of antifungal activity compared to terbinafine", "setting": "Valsa malicola (V. mali); V. mali, from EC50", "value": 14, "unit": "%"}, {"measurement": "EC50", "setting": "Valsa malicola (V. mali); V. mali, read-out: EC50 (μmol/L)", "value": 3.69, "unit": "µmol/L"}, {"measurement": "Inhibition Rate at 50 mg/L (%) F. g", "setting": "[3]; [13]", "value": "100 ± 0", "unit": "%"}, {"measurement": "EC50 (mg/L)", "setting": "[3]; F. graminearum", "value": 0.11, "unit": "mg/L"}, {"measurement": "EC50", "setting": "[3]; F. graminearum, read-out: EC50", "value": 270, "unit": "nM"}, {"measurement": "Solubility in n-Hexane", "setting": "[4]; Snyder polarity index 0.0", "value": "− (“−” means insoluble in a 3 mL solvent, poor solubility)"}, {"measurement": "Solubility in Toluene", "setting": "[4]; Snyder polarity index 2.3", "value": "+ (“+” means soluble in a 1 mL solvent, good solubility)"}, {"measurement": "Solubility in Chloroform", "setting": "[4]; Snyder polarity index 4.1", "value": "+ (“+” means soluble in a 1 mL solvent, good solubility)"}, {"measurement": "Solubility in Ethyl acetate", "setting": "[4]; Snyder polarity index 4.3", "value": "+ (“+” means soluble in a 1 mL solvent, good solubility)"}, {"measurement": "Solubility in Isopropanol", "setting": "[4]; Snyder polarity index 4.3", "value": "+ (“+” means soluble in a 1 mL solvent, good solubility)"}, {"measurement": "Solubility in Acetone", "setting": "[4]; Snyder polarity index 5.1", "value": "+ (“+” means soluble in a 1 mL solvent, good solubility)"}, {"measurement": "Solubility in Acetonitrile", "setting": "[4]; Snyder polarity index 6.2", "value": "+ (“+” means soluble in a 1 mL solvent, good solubility)"}, {"measurement": "Solubility in DMSO", "setting": "[4]; Snyder polarity index 6.5", "value": "+ (“+” means soluble in a 1 mL solvent, good solubility)"}, {"measurement": "Solubility in Methanol", "setting": "[4]; Snyder polarity index 6.6", "value": "+ (“+” means soluble in a 1 mL solvent, good solubility)"}, {"measurement": "Solubility in Water", "setting": "[4]; Snyder polarity index 9.0", "value": "− (“−” means insoluble in a 3 mL solvent, poor solubility)"}, {"measurement": "surface tension of the saturated aqueous solution", "setting": "[5]", "value": 51.26, "unit": "mN·m^−1"}, {"measurement": "Inhibition Rate at 50 mg/L (%) B. c", "setting": "[6]; [13]", "value": "100 ± 0", "unit": "%"}, {"measurement": "EC50 (mg/L)", "setting": "[6]; B. cinerea", "value": 0.13, "unit": "mg/L"}, {"measurement": "EC50", "setting": "[6]; B. cinerea, read-out: EC50 (μmol/L)", "value": 0.33, "unit": "µmol/L"}, {"measurement": "Inhibition Rate at 50 mg/L (%) A. s", "setting": "[7]; [13]", "value": "98.67 ± 0.61", "unit": "%"}, {"measurement": "EC50 (mg/L)", "setting": "[7]; A. solani", "value": 0.08, "unit": "mg/L"}, {"measurement": "improvement of antifungal activity compared to terbinafine", "setting": "[7]; A. solani, from EC50", "value": 20, "unit": "%"}, {"measurement": "EC50", "setting": "[7]; A. solani, read-out: EC50 (μmol/L)", "value": 0.2, "unit": "µmol/L"}, {"measurement": "Diameter of infection (cm) 4 days", "setting": "[8]; 4 days after treatment", "value": 0.61, "unit": "cm"}, {"measurement": "Diameter of infection (cm) 7 days", "setting": "[8]; 7 days after treatment", "value": 0.74, "unit": "cm"}, {"measurement": "critical micelle concentration (CMC)", "setting": "[9]", "value": 0.66, "unit": "mmol/L"}, {"measurement": "EC50 (mg/L)", "setting": "[10]", "value": 2.43, "unit": "mg/L"}, {"measurement": "Inhibition Rate at 50 mg/L (%) R. s", "setting": "[10]; 50 mg/L", "value": "82.02 ± 0.91", "unit": "%"}, {"measurement": "EC50", "setting": "[10]; read-out: EC50", "value": 6.02, "unit": "µM"}, {"measurement": "Inhibition Rate at 50 mg/L (%) P. c", "setting": "[11]", "value": "55.88 ± 1.89", "unit": "%"}, {"measurement": "Solubility, n-Hexane", "setting": "[12]; Table S1", "value": 1.02, "unit": "µM"}, {"measurement": "water solubility", "setting": "[12]; water", "value": 5.88, "unit": "mmol/L"}]}
